Reference: US10221168B1, “Small-compound enhancers for functional O-mannosylation of alpha-dystroglycan, and uses thereof” (priority 2015, dated 2019)

System: FOG of α-DG on the cell surfaces
Experiment: Cell-based HTS/HCS assay, IIH6 antibody as probe (EC1.5)
Details: concentration of the compound required to enhance the FOG of α-DG by 50% over the controls; cell-based assays in vitro
Excerpt: Protein glycosylation is a multiple-step process that requires a large number of proteins in the secretory pathway of the cells. Thus we chose cell-based assay because our goal is to identify enhancer the FOG of α-DG on the cell surfaces. The assay system is HTS/HCS friendly and can adapt to various cell lines including myotubes as well as various readout methods including AlphaScreen, fluorescence density and HCS/fluorescence imaging. The standard operation protocol (SOP) for adhesion cells is described below and the FIG. 1 illustrates the assay process using myoblasts as the controls and screening cells and the IIH6 antibody as the probe. Other adhesion cells such CHO (Chinese hamster ovary) cell line can be implemented into this assay by simply removing the differentiation step.
Cell cultures: All cells are cultured at 37° C., 5% CO2, in appropriate media (F-12 for epithelial cells and DMEM for myoblasts) supplement with 10-20% fetal calf serum (FCS) and 1% antibiotics. […] The cells will be detached with trypsin EDTA and suspended in the cell culture media. The cells will be counted and seeded into the multiple-well plates as desired. Myotubes formation: When the myoblasts reach confluence, change the growth media to differential media (DEME with 2% horse serum) and incubate for 4-5 days.
The cells were fixed, permeablized, and then blocked with 10% BSA in PBS for 1 hour. […] After washing the cells with PBS for 2 times, the DAPI was used to stain the cells for 15 mins and wash 3 times with PBS. The images were captured with an inverted Olympus fluorescent microscope. For small compound localization experiment, the cells are incubated with the biotin conjugated compounds and then the cells were washed and incubated with streptavidin-Dye and then images will be captured to see the location of the compound-target-protein.
H, EC1.5<5 μM; M, EC1.5-20 μM; L, EC1.5 20-50 μM; VL, EC1.5>50 μM.

Row | Structure (SMILES) | Activity (EC1.5)
1 | CCC(c1nnnn1Cc1cccs1)N1CCN(c2nc3ccc(C(=O)OC)cc3s2)CC1 (stereo not shown) [Compound 31, methyl 2-(4-(1-(1-(thiophen-2-ylmethyl)-1H-tetrazol-5-yl)propyl)piperazin-1-yl)benzothiazole-6-carboxylate] | L (EC1.5 20-50 μM)
2 | CCC(c1nnnn1Cc1cccs1)N1CCN(c2nc3cccc(F)c3s2)CC1 (stereo not shown) [Compound 21, 7-fluoro-2-(4-(1-(1-(thiophen-2-ylmethyl)-1H-tetrazol-5-yl)propyl)piperazin-1-yl)benzothiazole] | H (EC1.5<5 μM)
3 | CCC(c1nnnn1Cc1cccs1)N1CCN(c2nc3ccccc3s2)CC1 (stereo not shown) [Compound 6, 2-(4-(1-(1-(thiophen-2-ylmethyl)-1H-tetrazol-5-yl)propyl)piperazin-1-yl)benzothiazole] | M (EC1.5-20 μM)
4 | CCC(c1nnnn1CCc1cccs1)N1CCN(C2Sc3c(F)cc(N)cc3N2N)CC1 (stereo not shown) [Compound 61, 5-amino-7-fluoro-3-amino-2-(4-(1-(1-(thiophen-2-ylethyl)-1H-tetrazol-5-yl)propyl)piperazin-1-yl)benzothiazole] | H (EC1.5<5 μM)
5 | CCC(c1nnnn1CCc1cccs1)N1CCN(C2Sc3c(F)cc(N)cc3N2C)CC1 (stereo not shown) [Compound 63, 5-amino-7-fluoro-3-methyl-2-(4-(1-(1-(thiophen-2-ylethyl)-1H-tetrazol-5-yl)propyl)piperazin-1-yl)benzothiazole] | H (EC1.5<5 μM)
6 | CCC(c1nnnn1CCc1cccs1)N1CCCN(c2nc3cc(N)cc(F)c3s2)CC1 (stereo not shown) [Compound 76, 5-amino-7-fluoro-2-(4-(1-(1-(thiophen-2-ylethyl)-1H-tetrazol-5-yl)propyl)1,4-diazepane-1-yl)benzothiazole] | H (EC1.5<5 μM)
7 | CCC(c1nnnn1Cc1cccs1)N1CCN(c2nc3cccc(Br)c3s2)CC1 (stereo not shown) [Compound 34, 7-bromo-2-(4-(1-(1-(thiophen-2-ylmethyl)-1H-tetrazol-5-yl)propyl)piperazin-1-yl)benzothiazole] | L (EC1.5 20-50 μM)
8 | CCC(c1nnnn1Cc1cccs1)N1CCN(c2nc3cc(OC)c(OC)c(OC)c3s2)CC1 (stereo not shown) [Compound 20, 5.6.7-trimethaxy-2-(4-(1-(1-(thiophen-2-ylmethyl)-1H-tetrarol-5-yl)propyl)piperazin-1-yl)benzothiazole] | M (EC1.5-20 μM)
9 | CCC(c1nnnn1Cc1ccc(C)s1)N1CCN(c2nc3cc(N)cc(F)c3s2)CC1 (stereo not shown) [Compound 56, 5-amino-7-fluoro-2-(4-(1-(1-(5-methyl-thiophen-2-ylmethyl)-1H-tetrazol-5-yl)propyl)piperazin-1-yl)benzothiazole] | H (EC1.5<5 μM)
10 | O=C(c1nnnn1Cc1cccs1)N1CCN(c2nc3cccc(F)c3s2)CC1 [Compound 33, (4-(7-fluorobenzothiazol-2-yl)piperazin-1-yl)(1-(thiophen-2-ylmethyl)-1H-tetrazol-5-yl)methanone] | L (EC1.5 20-50 μM)
11 | CCC(c1nnnn1CCc1cccs1)N1CCN(c2nc3cc(N)cc(F)c3s2)C(N)C1 (stereo not shown) [Compound 66, 5-amino-7-fluoro-2-(4-(1-(1-(thiophen-2-ylethyl)-1H-tetrazol-5-yl)propyl)-2-amino-piperazin-1-yl)benzothiazole] | H (EC1.5<5 μM)
12 | CCC(c1nnnn1Cc1ccns1)N1CCN(c2nc3cc(N)cc(F)c3s2)CC1 (stereo not shown) [Compound 73, 5-amino-7-fluoro-2-(4-(1-(1-(isothiazol-5-ylmethyl)-1H-tetrazol-5-yl)propyl)piperazin-1-yl)benzothiazole] | H (EC1.5<5 μM)
13 | CCC(c1nnnn1Cc1cccs1)N1CCN(c2nc3ccc(N)cc3s2)CC1 (stereo not shown) [Compound 11, 6-amino-2-(4-(1-(1-(thiophen-2-ylmethyl)-1H-tetrazol-5-yl)propyl)piperazin-1-yl)benzothiazole] | M (EC1.5-20 μM)
14 | CCC(c1nnnn1Cc1cccs1)N1CCN(c2nc3ccc(NC(=O)CCCC[C@@H]4SC[C@@H]5NC(=O)N[C@@H]54)cc3s2)CC1 (stereo partly drawn) [Compound 12, 5-((3aS,4S,6aR)-2-oxohexahydro-1H-thieno[3,4-d]imidazol-4-yl)-N-(2-(4-(1-(1-(thiophen-2-ylmethyl)-1H-tetrazol-5-yl)propyl)piperazin-1-yl)benzothiazol-6-yl)pentanamide] | H (EC1.5<5 μM)
15 | CCC(c1nnnn1CCc1ccns1)N1CCN(c2nc3cc(N)cc(F)c3s2)CC1 (stereo not shown) [Compound 74, 5-amino-7-fluoro-2-(4-(1-(1-(isothiazol-5-ylethyl)-1H-tetrazol-5-yl)propyl)piperazin-1-yl)benzothiazole] | H (EC1.5<5 μM)
16 | CCC(c1nnnn1Cc1cccs1)N1CCN(c2nc3ccc(-c4ccccc4)cc3s2)CC1 (stereo not shown) [Compound 17, 6-phenyl-2-(4-(1-(1-(thiophen-2-ylmethyl)-1H-tetrazol-5-yl)propyl)piperazin-1-yl)benzothiazole] | VL (EC1.5>50 μM)

Row | Structure (SMILES) | Activity (EC1.5)
17 | CCC(c1nnnn1Cc1cccs1)N1CCN(c2nc3cc(N)c(N)cc3s2)CC1 (stereo not shown) [Compound 54, 5,6-diamino-2-(4-(1-(1-(thiophen-2-ylmethyl)-1H-tetrazol-5-yl)propyl)piperazin-1-yl)benzothiazole] | H (EC1.5<5 μM)
18 | CCC(c1nnnn1CCc1cccs1)N1CCCN(c2nc3cc(N)cc(F)c3s2)CC1 (stereo not shown) [Compound 75, 5-amino-7-fluoro-2-(4-(1-(1-(thiophen-2-ylethyl)-1H-tetrazol-5-yl)propyl)1,4-diazepane-1-yl)benzothiazole] | H (EC1.5<5 μM)
19 | CCC(c1nnnn1Cc1cncs1)N1CCN(c2nc3cccc(F)c3s2)CC1 (stereo not shown) [Compound 42, 7-fluoro-2-(4-(1-(1-(thiazol-5-ylmethyl)-1H-tetrazol-5-yl)propyl)piperazin-1-yl)benzothiazole] | L (EC1.5 20-50 μM)
20 | CCC(c1nnnn1Cc1ccc(F)s1)N1CCN(c2nc3cc(N)cc(F)c3s2)C(C)C1 (stereo not shown) [Compound 59, 5-amino-7-fluoro-2-(4-(1-(1-(5-fluoro-thiophen-2-ylmethyl)-1H-tetrazol-5-yl)propyl)-2-methyl-piperazin-1-yl)benzothiazole] | H (EC1.5<5 μM)
21 | CCC(c1nnnn1CCc1cccs1)N1CCN(c2nc3cc(N)c(N)cc3s2)CC1 (stereo not shown) [Compound 53, 5,6-diamino-2-(4-(1-(1-(thiophen-2-ylethyl)-1H-tetrazol-5-yl)propyl)piperazin-1-yl)benzothiazole] | H (EC1.5<5 μM)
22 | CCC(c1nnnn1CCc1cccs1)N1CCN(c2nc3cccc(F)c3s2)CC1 (stereo not shown) [Compound 41, 7-fluoro-2-(4-(1-(1-(2-(thiophen-2-yl)ethyl)-1H-tetrazol-5-yl)propyl)piperazin-1-yl)benzothiazole] | L (EC1.5 20-50 μM)
23 | CCC(c1nnnn1CCc1cccs1)N1CCN(c2nc3cc(N)cc(F)c3s2)CC1[N+](=O)[O-] (stereo not shown) [Compound 64, 5-amino-7-fluoro-2-(4-(1-(1-(thiophen-2-ylethyl)-1H-tetrazol-5-yl)propyl)-3-nitro-piperazin-1-yl)benzothiazole] | H (EC1.5<5 μM)
24 | CCC(c1nnnn1Cc1cccs1)N1CCN(c2nc3ccc(OC)cc3s2)CC1 (stereo not shown) [Compound 14, 6-methoxy-2-(4-(1-(1-(thiophen-2-ylmethyl)-1H-tetrazol-5-yl)propyl)piperazin-1-yl)benzothiazole] | M (EC1.5-20 μM)
25 | CCC(c1nnnn1Cc1cccs1)N1CCN(c2nc3cccc(C(F)(F)F)c3s2)CC1 (stereo not shown) [Compound 26, 2-(4-(1-(1-(thiophen-2-ylmethyl)-1H-tetrazol-5-yl)propyl)piperazin-1-yl)-7-(trifluoramethyl)benzothiazole] | L (EC1.5 20-50 μM)
26 | CCC(c1nnnn1Cc1ccco1)N1CCC(c2nc3ccccc3s2)CC1 (stereo not shown) [Compound 4, 2-(1-(1-(1-(furan-2-ylmethyl)-1H-tetrazol-5-yl)propyl)piperidin-4-yl)benzothiazole] | M (EC1.5-20 μM)
27 | CCC(c1nnnn1Cc1cccs1)N1CCN(c2nc3c(F)c(N)ccc3s2)CC1 (stereo not shown) [Compound 47, 5-amino-4-fluoro-2-(4-(1-(1-(thiophen-2-ylmethyl)-1H-tetrazol-5-yl)propyl)piperazin-1-yl)benzothiazole] | H (EC1.5<5 μM)
28 | CCC(c1nnnn1Cc1cccs1)N1CCN(Cc2nc3ccccc3s2)CC1 (stereo not shown) [Compound 43, 2-((4-(1-(1-(thiophen-2-ylmethyl)-1H-tetrazol-5-yl)propyl)piperazin-1-yl)methyl)benzothiazole] | L (EC1.5 20-50 μM)
29 | CCC(c1nnnn1Cc1cccs1)N1CCN(c2nc3ccccc3o2)CC1 (stereo not shown) [Compound 7, 2-(4-(1-(1-(thiophen-2-ylmethyl)-1H-tetrazol-5-yl)propyl)piperazin-1-yl)benzoxazole] | M (EC1.5-20 μM)
30 | CCC(c1nnnn1Cc1cccs1)N1CCC(c2nc3ccccc3s2)CC1 (stereo not shown) [Compound 8, 2-(1-(1-(1-(thiophen-2-ylmethyl)-1H-tetrazol-5-yl)propyl)piperidin-4-yl)benzothiazole] | M (EC1.5-20 μM)
31 | CC(c1nnnn1Cc1cccs1)N1CCN(c2nc3ccccc3s2)CC1 (stereo not shown) [Compound 3, 2-(4-(1-(1-(thiophen-2-ylmethyl)-1H-tetrazol-5-yl)ethyl)piperazin-1-yl)benzothiazole] | M (EC1.5-20 μM)
